Assay results reported in paper PMC4950319, “Kinetic and structural characterization of amyloid‐β peptide hydrolysis by human angiotensin‐1‐converting enzyme” (The Febs Journal, 2016).
Where “and” joins values, the source holds several entries; their conditions need not be identical. Equal entries are not always repeated. Where no end group is shown, it is not given here. [ ]: non-standard residue; d: D form. The star is where a group is joined. Tyr(3-NO2) = N[C@@H](Cc1ccc(O)c([N+](=O)[O-])c1)C(=O)O; EDDnp = O=[N+]([O-])c1ccc(NCCN*)c([N+](=O)[O-])c1; 2Abz = Nc1ccccc1C(=O)O; Cbz = O=C(OCc1ccccc1)*

Key:
[1] = test system: sACE (human ACE); details: cited from earlier work; for interdomain cooperativity: human ACE enzymes; for degree of cooperativity between domains: compared with many synthetic peptides
Description: Due to the C‐domain's poorer hydrolysis of Aβ we can infer that the C‐domain appears ...

[2] = biological target: T1, N‐sACE (Homo sapiens, UniProt P12821, H988K/H992K); test: Aβ(4–10)Q hydrolysis by N‐sACE, fluorogenic assay; format: biochemical; details: fluorescence λex 320 nm, λem 420 nm, 50 mM Hepes pH 7.5, 100 mM NaCl, 10 μM ZnSO4, substrate 0 to 30 μM, 45 min, 37 °C, enzyme 9.00 pmol, n = 3
T1 construct: Both constructs have the complete signal, transmembrane and stalk region corresponding to full‐length sACE; made in house; host or cells: CHO cells; purified from cell lysate
Description: (§1) Fluorogenic substrates designed around the established N‐terminal Asp7‐Ser8 cleavage site of the full‐length Aβ(1–42) were used to develop a higher throughput assay. There are two variations of the short fluorogenic peptides: Aβ(4–10)Q (Abz‐FRHDSG(Q)‐EDDnp) which has an N‐terminal Abz donor and a C‐terminal EDDnp quencher group attached to an additional Gln residue. The second peptide, Aβ(4–10)Y (Abz‐FRHDSG‐(NT)) has a different quencher molecule, NT, which substitutes for the naturally occurring Tyr residue.
(§2) Hydrolysis of the fluorogenic peptide Abz‐FRHDSG(Q)‐EDDnp (Aβ(4–10)Q, obtained from A. Carmona, Universidade Federal de São Paulo, Brazil) was performed in Hepes buffer (50 mM Hepes pH 7.5, 100 mM NaCl, 10 μM ZnSO4 buffer) with 150 μL enzyme (at final concentrations within 10% hydrolysis of total substrate; see Table 2) and equal volume of substrate ranging from 0 to 30 μM. The assay is a modified form of the continuous assay 7 where the assay is set up on ice in triplicate in a 96‐well plate. The baseline fluorescence was at time zero and then the substrate was incubated at 37 °C and fluorescence read at the 45 min time point on a Cary Eclipse spectrofluorimeter (Varian Inc.) at λex = 320 nm and λem = 420 nm. Again, kinetic constants were calculated using the Michaelis–Menten method with […] PRISM software (v4.01, GraphPad Prism®). The detected fluorescence was converted to picamoles product formed through the slope of a calibration curve of Abz‐Gly. A correction curve was also applied to correct the data for the inner filter effect 70.
(§3) Statistical analysis of the data was determined by Student's t test. Differences with P < 0.05 were considered statistically significant. Fractional error was calculated for the k cat/K m ratio with the following equation: ΔZ=ZΔa/a^2+Δb/b^2 where Z represents the mean k cat/K m and ΔZ represents the fractional error. The Δa represents the SEM of the mean k cat (a). Similarly, Δb represents the SEM of the mean K m (b).

[3] = test system: CC‐sACE; test: Aβ(4–10)Q hydrolysis by CC‐sACE, fluorogenic assay; format: biochemical, human; details: Hepes pH 7.5, 37 °C, 45 min, fluorescence
Description: as §1
as §2, with “The assay is a modified form of the continuous assay 7 where the assay is set up on ice in triplicate in a 96‐well plate.” left out, “PRISM software (v4.01, GraphPad Prism®).” left out, “A correction curve was also applied to correct the data for the inner filter effect 70.” left out
Statistical analysis of the data was determined by Student's t test. […]

[4] = biological target: T2, sACE (Homo sapiens, UniProt P12821); test: Aβ(4–10)Q hydrolysis by sACE, fluorogenic assay; format: biochemical; details: fluorescence λex 320 nm, λem 420 nm, 50 mM Hepes pH 7.5, 100 mM NaCl, 10 μM ZnSO4, substrate 0 to 30 μM, 45 min, 37 °C, enzyme 1.50 pmol, n = 3
T2 construct: made in house; host or cells: CHO cells; purified from cell lysate
Description: as §1, §2, §3

[5] = biological target: T2, sACE; test: Interdomain cooperativity in hydrolysis of Aβ substrates; format: biochemical; details: two domains of sACE, truncated and full‐length constructs compared
Description: Mixtures were separated on a Poroshell 120 EC‐18 column with a 2.7 μm pore size. The reaction consists of 25 μL substrate incubated with 25 μL enzyme for 15 min at 37 °C and was stopped with the addition of 10 μL of 0.25% trifluoroacetic acid (TFA). The total reaction (60 μL) was cleared of contaminants on a spin column (GHP Nanosep® MF Centrifugal Device 0.45 μm pore size) and run on the HPLC. Kinetic parameters were determined through the fitting of initial rates to the Michaelis–Menten equation with […] PRISM software (v 4.01, GraphPad Prism®).
The reaction was incubated for 15 min at 37 °C and stopped with the addition of 10 μL 0.25% TFA to make up a total volume of 60 μL. The reactions were performed in triplicate and 50 μL injections were analysed via HPLC (Agilent Technologies) across a gradient of 0.1% TFA and 2% ACN in water to 0.1% TFA, 95% ACN. A calibration curve was set up to convert the product peak area to picomoles product formed, through the complete hydrolysis of the substrate with the N‐domain. […] Kinetic constants were calculated using the Michaelis–Menten method using […] […]
The assay is a modified form of the continuous assay 7 where the assay is set up on ice in triplicate in a 96‐well plate. The baseline fluorescence was at time zero and then the substrate was incubated at 37 °C and fluorescence read at the 45 min time point on a Cary Eclipse spectrofluorimeter (Varian Inc.) at λex = 320 nm and λem = 420 nm. Again, kinetic constants were calculated using the Michaelis–Menten method with […] […] The detected fluorescence was converted to picamoles product formed through the slope of a calibration curve of Abz‐Gly. […]
An alternative fluorogenic peptide, Abz‐FRHDSG‐(NT) (BIOPEP™ South Africa) was assayed, with 100 μL enzyme and 100 μL substrate (at a final enzyme concentration within 10% hydrolysis of total substrate; see Table 3) as above, in 96‐well plates. The samples were read at the 5 min time point on a Cary Eclipse spectrofluorimeter (Varian Inc.) at λex = 320 nm and λem = 420 nm. Kinetic constants, inner filter effect and standard curves were calculated as above.

[6] = biological target: T3, C‐sACE (Homo sapiens, UniProt P12821, H390K/H394K); test: Aβ(4–10)Q hydrolysis by C‐sACE, fluorogenic assay; format: biochemical; details: fluorescence λex 320 nm, λem 420 nm, 50 mM Hepes pH 7.5, 100 mM NaCl, 10 μM ZnSO4, substrate 0 to 30 μM, 45 min, 37 °C, enzyme 1.50 pmol, n = 3
T3 construct: Both constructs have the complete signal, transmembrane and stalk region corresponding to full‐length sACE; made in house; host or cells: CHO cells; purified from cell lysate
Description: as §1, §2, §3

[7] = biological target: T4, Ndom (soluble form of the N‐domain of sACE) (Homo sapiens, UniProt P12821); test: Aβ(4–10)Q hydrolysis by Ndom, fluorogenic assay; format: biochemical; details: fluorescence λex 320 nm, λem 420 nm, 50 mM Hepes pH 7.5, 100 mM NaCl, 10 μM ZnSO4, substrate 0 to 30 μM, 45 min, 37 °C, enzyme 0.60 pmol, n = 3
T4 construct: made in house; host or cells: CHO cells
Description: as §1, §2, §3

[8] = test system: ACE variants; test: Cleavage‐site analysis by MALDI‐TOF MS, kinetic assay conditions; format: biochemical, human; details: MALDI‐TOF MS of products within kinetic assay conditions; Aβ(1–16): all ACE variants except Cdom; Aβ(4–10) peptides: Cdom and CC‐sACE not analysed
Description: The mass spectrometry was analysed at the Centre for Proteomic and Genomic Research (Cape Town, South Africa). Briefly, the collected peptides were spotted onto a 10 mg·mL^−1 α‐cyano‐4‐hydroxycinnamic acid matrix (Fluka, USA) in 80% ACN, 0.2% TFA for a final concentration of 5 mg·mL^−1 matrix in 40% ACN, 0.1% TFA, 10 mM NH4H2PO4. Mass spectrometry was performed with a 4800 MALDI‐TOF/TOF (Applied Biosytems) with all spectra recorded in positive reflector mode. Spectra were generated with 400 laser shots/spectrum at a laser intensity of 3800 (arbitrary units) with a grid voltage of 16 kV.

[9] = biological target: full-length domain knockout variant of human sACE with only the N-domain active (N-sACE) (human) (UniProt P12821)
[10] = biological target: human wild-type somatic ACE (sACE) (human) (UniProt P12821)
[11] = biological target: full-length domain knockout variant of human sACE with only the C-domain active (C-sACE) (human) (UniProt P12821)
[12] = biological target: soluble form of the N-domain of human sACE (Ndom) (human) (UniProt P12821)
[13] = test system: ACE; details: recombinant truncated domains only; cited from earlier work
Description: Based on our results and the synergistic effect that the C‐domain exerts on the N‐domain, the C‐domain activity is likely to be important in vivo. […] This observation is supported by the architecture of the central cavity found in tACE (human testis ACE, C‐domain equivalent) crystal structure and the chloride‐dependent substrate interactions 54, 57. The latter study, ...

[14] = test system: ACE; details: full‐length Aβ(1–42); cited from earlier work
Description: This type of cleavage has been observed in previous studies with other amyloid peptides 23, 24 and was also observed in the crystal structures of the N‐domain in complex with all the Aβ fragments tested. Based on the MS analysis of th ...

[15] = biological target: full-length domain knockout variant of human sACE with only the N-domain active (N-sACE) (human) (UniProt P12821); remark: listed apart in the source
[16] = biological target: full-length domain knockout variant of human sACE with only the C-domain active (C-sACE) (human) (UniProt P12821); remark: listed apart in the source
[17] = biological target: full-length domain knockout variant of human sACE with only the N-domain active (N-sACE) (human) (UniProt P12821); remark: listed apart in the source
[18] = biological target: full-length domain knockout variant of human sACE with only the C-domain active (C-sACE) (human) (UniProt P12821); remark: listed apart in the source
[19] = mean ± fractional error of the ratio

T3 sequence (P12821 30-1306 H390K/H394K): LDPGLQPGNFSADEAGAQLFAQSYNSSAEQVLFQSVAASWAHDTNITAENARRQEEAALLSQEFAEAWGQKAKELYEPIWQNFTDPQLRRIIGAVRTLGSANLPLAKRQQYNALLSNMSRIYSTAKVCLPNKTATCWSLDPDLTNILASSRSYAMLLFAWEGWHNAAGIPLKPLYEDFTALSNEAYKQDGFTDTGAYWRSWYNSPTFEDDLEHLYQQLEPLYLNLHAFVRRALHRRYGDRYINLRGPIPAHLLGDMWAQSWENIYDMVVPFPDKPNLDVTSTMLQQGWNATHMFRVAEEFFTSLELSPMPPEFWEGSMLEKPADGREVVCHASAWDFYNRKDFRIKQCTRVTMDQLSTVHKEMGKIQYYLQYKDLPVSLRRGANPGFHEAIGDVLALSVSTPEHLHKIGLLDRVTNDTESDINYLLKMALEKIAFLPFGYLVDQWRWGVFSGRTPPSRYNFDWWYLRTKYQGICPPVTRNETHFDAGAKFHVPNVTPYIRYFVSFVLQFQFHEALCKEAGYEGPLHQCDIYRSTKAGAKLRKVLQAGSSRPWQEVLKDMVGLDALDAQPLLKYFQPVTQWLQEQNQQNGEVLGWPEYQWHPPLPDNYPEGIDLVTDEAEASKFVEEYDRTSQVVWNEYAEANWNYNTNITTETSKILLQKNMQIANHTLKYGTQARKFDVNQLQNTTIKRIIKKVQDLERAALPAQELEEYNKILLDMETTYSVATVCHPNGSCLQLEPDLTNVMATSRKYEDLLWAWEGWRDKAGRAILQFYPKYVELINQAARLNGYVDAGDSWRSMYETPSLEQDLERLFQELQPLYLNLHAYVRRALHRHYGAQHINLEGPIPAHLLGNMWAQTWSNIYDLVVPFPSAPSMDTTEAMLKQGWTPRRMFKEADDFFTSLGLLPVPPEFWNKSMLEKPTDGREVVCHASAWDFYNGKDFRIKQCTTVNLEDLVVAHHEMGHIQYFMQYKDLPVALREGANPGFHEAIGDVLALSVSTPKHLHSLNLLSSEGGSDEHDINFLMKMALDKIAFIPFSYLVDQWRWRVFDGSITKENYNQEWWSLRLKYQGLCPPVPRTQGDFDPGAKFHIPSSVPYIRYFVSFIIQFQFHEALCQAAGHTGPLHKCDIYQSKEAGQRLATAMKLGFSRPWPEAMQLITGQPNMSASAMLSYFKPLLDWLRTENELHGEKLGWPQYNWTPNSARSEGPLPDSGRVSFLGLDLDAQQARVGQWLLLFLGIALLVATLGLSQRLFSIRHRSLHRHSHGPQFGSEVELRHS
full-length domain knockout variant of human sACE with only the C-domain active (C-sACE) (human), sequence (P12821 other isoform, or with tags, fused parts or gaps, change not shown): as the sequence (P12821 30-1306 H390K/H394K) above
T1 sequence (P12821 30-1306 H988K/H992K): as the sequence (P12821 30-1306 H390K/H394K) above, with K361H, K365H, H959K, H963K counted along it
full-length domain knockout variant of human sACE with only the N-domain active (N-sACE) (human), sequence (P12821 other isoform, or with tags, fused parts or gaps, change not shown): as the sequence (P12821 30-1306 H390K/H394K) above, with K361H, K365H, H959K, H963K counted along it
T2 sequence (P12821 30-1306): as the sequence (P12821 30-1306 H390K/H394K) above, with K361H, K365H counted along it
T4 sequence (P12821 30-658): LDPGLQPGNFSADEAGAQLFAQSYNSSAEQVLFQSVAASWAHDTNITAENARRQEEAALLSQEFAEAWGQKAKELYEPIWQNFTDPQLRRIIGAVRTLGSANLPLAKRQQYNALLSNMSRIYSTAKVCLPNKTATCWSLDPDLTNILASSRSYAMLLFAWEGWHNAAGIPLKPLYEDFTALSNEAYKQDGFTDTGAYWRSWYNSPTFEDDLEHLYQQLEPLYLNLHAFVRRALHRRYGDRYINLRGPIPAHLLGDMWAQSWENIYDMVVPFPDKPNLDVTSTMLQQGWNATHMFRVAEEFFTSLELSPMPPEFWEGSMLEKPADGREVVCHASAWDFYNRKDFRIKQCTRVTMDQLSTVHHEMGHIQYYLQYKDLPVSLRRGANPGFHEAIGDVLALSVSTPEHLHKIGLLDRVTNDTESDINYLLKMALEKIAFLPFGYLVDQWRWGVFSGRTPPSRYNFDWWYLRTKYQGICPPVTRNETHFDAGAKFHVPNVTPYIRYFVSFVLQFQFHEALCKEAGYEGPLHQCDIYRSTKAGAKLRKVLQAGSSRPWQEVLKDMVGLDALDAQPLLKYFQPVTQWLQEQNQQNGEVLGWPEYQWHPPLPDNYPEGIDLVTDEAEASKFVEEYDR
human wild-type somatic ACE (sACE) (human), sequence (P12821 30-1306): as the sequence (P12821 30-1306 H390K/H394K) above, with K361H, K365H counted along it
soluble form of the N-domain of human sACE (Ndom) (human), sequence (P12821 30-658): as the sequence (P12821 30-658) above
CC‐sACE, sequence (P12821 643-1222 limits assumed): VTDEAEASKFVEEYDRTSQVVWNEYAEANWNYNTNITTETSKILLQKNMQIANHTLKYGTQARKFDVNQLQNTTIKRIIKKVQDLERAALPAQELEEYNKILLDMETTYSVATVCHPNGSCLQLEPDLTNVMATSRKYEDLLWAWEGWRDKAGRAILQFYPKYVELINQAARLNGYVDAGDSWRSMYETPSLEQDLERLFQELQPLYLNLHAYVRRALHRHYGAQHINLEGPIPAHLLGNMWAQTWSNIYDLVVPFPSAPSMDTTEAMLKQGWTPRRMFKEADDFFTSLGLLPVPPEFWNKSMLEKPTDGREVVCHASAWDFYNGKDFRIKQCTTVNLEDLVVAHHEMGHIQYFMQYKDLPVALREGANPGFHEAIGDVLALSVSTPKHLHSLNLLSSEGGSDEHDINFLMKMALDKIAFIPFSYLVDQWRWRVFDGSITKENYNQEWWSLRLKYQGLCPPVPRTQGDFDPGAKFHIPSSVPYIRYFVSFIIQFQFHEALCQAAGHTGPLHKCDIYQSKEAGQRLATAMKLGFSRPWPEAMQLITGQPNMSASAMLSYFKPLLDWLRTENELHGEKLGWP

(Abz)‐LFK(Dnp)‐OH
effect of the presence of the N‐domain on hydrolysis [1]: regulatory effects

Abz‐FRHDSG(Q)‐EDDnp [Aβ(4–10)Q, fluorogenic Aβ(4–10) peptide, Abz donor, EDDnp quencher attached to additional Gln]
K m ([2]; mean ± SEM): 42.43 ± 3.92 µM
V max ([2]; mean ± SEM): 3.23 ± 0.20
k cat ([2]; mean ± SEM): 0.36 ± 0.02 s⁻¹
k cat/K m [2, 19]: 0.09 M^−1·s^−1 × 10^5 and 0.09 ± 0.01 M^−1·s^−1 × 10^5
hydrolysis by CC‐sACE [3]: almost no hydrolysis
K m ([4]; mean ± SEM): 22.90 ± 3.45 µM
V max ([4]; mean ± SEM): 0.09 ± 0.01
k cat ([4]; mean ± SEM): 0.06 ± 0.01 s⁻¹
k cat/K m [4, 19]: 0.03 ± 0.01 M^−1·s^−1 × 10^5
interdomain cooperativity [5]: This is also true for the Aβ(4–10)Q substrate, although to a much lesser extent
K m ([6]; mean ± SEM): 11.50 ± 3.03 µM
V max ([6]; mean ± SEM): 0.12 ± 0.01
k cat ([6]; mean ± SEM): 0.08 ± 0.01 s⁻¹
k cat/K m [6, 19]: 0.08 ± 0.02 M^−1·s^−1 × 10^5
K m ([7]; mean ± SEM): 22.20 ± 3.23 µM
V max ([7]; mean ± SEM): 0.29 ± 0.02
k cat ([7]; mean ± SEM): 0.48 ± 0.04 s⁻¹
k cat/K m [7, 19]: 0.22 M^−1·s^−1 × 10^5 and 0.22 ± 0.04 M^−1·s^−1 × 10^5
cleavage site (bond) [8]: Asp7‐Ser8

Aβ(1–16) (H-…-OH) (peptide)
Km of hydrolysis of Aβ(1–16) (HPLC assay, 15 min, 37 °C, 50 mM Hepes pH 7.5, 100 mM NaCl, 10 μM ZnSO4) [9]: 34.2 μM
Km of hydrolysis of Aβ(1–16) (HPLC assay, 15 min, 37 °C, 50 mM Hepes pH 7.5, 100 mM NaCl, 10 μM ZnSO4) [10]: 35.2 μM
Km of hydrolysis of Aβ(1–16) (HPLC assay, 15 min, 37 °C, 50 mM Hepes pH 7.5, 100 mM NaCl, 10 μM ZnSO4) [11]: 42.4 μM
Km of hydrolysis of Aβ(1–16) (HPLC assay, 15 min, 37 °C, 50 mM Hepes pH 7.5, 100 mM NaCl, 10 μM ZnSO4) [12]: 21.4 μM

Aβ(1–40): larger Aβ(1–40) substrate
competition with hippuryl‐L‐histidyl‐ L‐leucine [13]: did not out‐compete

Aβ(1–42): full‐length Aβ(1–42)
cleavage sites [14]: multiple cleavage sites

Cbz-Phe-His-Leu [ACE substrate]
effect of the presence of the N‐domain on hydrolysis [1]: regulatory effects

angiotensin I (DRVYIHPFHL; Angiotensin-1; UniProt P01019 25-34, looked up) [physiological ACE substrate]
interdomain cooperativity [1]: showed a similar result for angiotensin I and angiotensin‐(1‐7) but not angiotensin‐(1‐9)

angiotensin‐(1‐7) (DRVYIHP; Angiotensin 1-7; UniProt P01019 25-31, looked up, fragment) [physiological substrate]
interdomain cooperativity [1]: showed a similar result for angiotensin I and angiotensin‐(1‐7) but not angiotensin‐(1‐9)

angiotensin‐(1‐9) (DRVYIHPFH; Angiotensin 1-9; UniProt P01019 25-33, looked up, fragment) [physiological substrate]
degree of cooperativity between domains [1]: considerably less than many synthetic peptides
interdomain cooperativity [1]: showed a similar result for angiotensin I and angiotensin‐(1‐7) but not angiotensin‐(1‐9)

bradykinin (RPPGFSPFR; Bradykinin; UniProt P01042 381-389, looked up) [vasodilatory peptide, physiological substrate]
degree of cooperativity between domains [1]: considerably less than many synthetic peptides

B1: Aβ(4–10)Q (Abz-FRHDSG(Q)-EDDnp) (peptide)
peptide: [2Abz]FRHDSGQ-EDDnp
Km of hydrolysis of Aβ(4–10)Q (fluorescence assay, 45 min, 37 °C, 50 mM Hepes pH 7.5, 100 mM NaCl, 10 μM ZnSO4) [15]: 42.4 μM
Km of hydrolysis of Aβ(4–10)Q (fluorescence assay, 45 min, 37 °C, 50 mM Hepes pH 7.5, 100 mM NaCl, 10 μM ZnSO4) [16]: 11.5 μM

B2: Aβ(4–10)Y (Abz-FRHDSG-(NT)) (peptide)
peptide: [2Abz]FRHDSG[Tyr(3-NO2)]
Km of hydrolysis of Aβ(4–10)Y (fluorescence assay, read at 5 min) [17]: 8.56 µM
Km of hydrolysis of Aβ(4–10)Y (fluorescence assay, read at 5 min) [18]: 38.1 µM
